Measured values taken from US9840496B2, “CD38 inhibitors and methods of treatment” (GlaxoSmithKline Intellectual Property (No.2) Limited, priority 2014, dated 2017).

Each compound was assayed against T1, human CD38 (Homo sapiens, UniProt P28907) (assay: human CD38 enzyme activity colorimetric assay). Conditions: extracellular domain of human CD38, 0.4 nM CD38, 100 uM NAD+.
T1 construct: The extracellular domain of human CD38 was expressed in pichia pastoris and purified to homogeneity; made in house; host or cells: Pichia pastoris
T1 sequence (P28907 43-300 limits assumed): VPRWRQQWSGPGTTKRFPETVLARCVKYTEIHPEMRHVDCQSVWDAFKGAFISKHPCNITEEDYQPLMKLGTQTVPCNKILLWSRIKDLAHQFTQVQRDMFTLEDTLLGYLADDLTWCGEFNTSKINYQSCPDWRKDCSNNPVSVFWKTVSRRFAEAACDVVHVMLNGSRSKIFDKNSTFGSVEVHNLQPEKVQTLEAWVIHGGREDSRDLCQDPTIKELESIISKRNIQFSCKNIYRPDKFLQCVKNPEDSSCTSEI
Format: biochemical
Method: The extracellular domain of human CD38 was expressed in pichia pastoris and purified to homogeneity. The enzyme activity assay was performed in a low-volume 384-well plate in a total volume of 20 μL. A range of concentrations of test compound in 200 nL DMSO was delivered into the assay plate wells. Columns 6 and 18 of the plate contained DMSO with no compound and served as the high signal and low signal controls (no CD38 added), respectively. All additions of assay reagents to the plate were done using a Multidrop Combi, and the plate was shaken 3-5 seconds after each addition. CD38 (0.8 nM) was incubated with test compound in 10 μL containing 100 mM HEPES, pH 7.4, 4 mM EDTA, and 1 mM CHAPS for 30 minutes prior to initiation of the reaction. The reaction was initiated by a 10 μL addition containing 5 mM sodium acetate, pH 4.5, 1 mM CHAPS, 200 μM NAD+ and 500 uM GW323424X. The solutions for each of the two additions were prepared fresh each day from concentrated stocks of the individual components. […] Catalytic formation of this novel chromophore was followed in an Envision microplate reader by reading absorbance at two time points, typically 30 minutes apart within the first 45 minutes of the reaction. These time points were established empirically to ensure the rates determined were in a linear range of product formation. Data analysis was performed in the following way using ActivityBase XE (Abase XE). The data from the 15 and 45 minute reads was processed by performing a subtraction function of 45 minute read value minus 15 minute read value for each plate well. The resulting values for non-control wells were converted to % inhibition using the formula 100*((U−C1)/(C2−C1)) where U is the value of the test well, C1 is the average of the values of the high signal (column 6) control wells, and C2 is the average of the values of the low signal (column 18) control wells. Percent inhibition (y) was plotted versus inhibitor concentration (x), and curve fitting was performed with the following four parameter equation: y=A+((B−A)/(1+(10^x/10^C)^D)), where A is the minimum response, B is the maximum response, C is the log10IC50, and D is the Hill slope.

Row | IC50 [nM] | Compound
1 | 500 to 1000 | CC(O)CO[C@H]1CC[C@H](NC(=O)c2cc(-n3ccnc3)cc3c(Cl)c[nH]c23)CC1 (stereo partly drawn) [example 8, 3-Chloro-N-((1r,4r)-4-(2-hydroxypropoxy)cyclohexyl)-5-(1H-imidazol-1-yl)-1H-indole-7-carboxamide]
2 | > 1000 | CC(O)(CN[C@H]1CC[C@H](NC(=O)c2cc(-n3ccnc3)cc3cc[nH]c23)CC1)C(F)(F)F (stereo partly drawn) [example 10, 5-(1H-Imidazol-1-yl)-N-((1r,4r)-4-((3,3,3-trifluoro-2-hydroxy-2-methylpropyl)amino)cyclohexyl)-1H-indole-7-carboxamide]
3 | < 500 | O=C(N[C@H]1CC[C@H](NCC(F)F)CC1)c1cc(-n2ccnc2)cc2cc[nH]c12 [example 12, N-((1r,4r)-4-((2,2-Difluoroethyl)amino)cyclohexyl)-5-(1H-imidazol-1-yl)-1H-indole-7-carboxamide]
4 | > 1000 | O=C(N[C@H]1CC[C@H](NCC(F)F)CC1)c1cc(-n2ccnc2)cc2c(Cl)c[nH]c12 [example 13, 3-Chloro-N-((1r,4r)-4-((2,2-difluoroethyl)amino)cyclohexyl)-5-(1H-imidazol-1-yl)-1H-indole-7-carboxamide]
5 | > 1000 | C[C@@H](CS(C)(=O)=O)N[C@H]1CC[C@H](NC(=O)c2cc(-n3ccnc3)cc3cc[nH]c23)CC1 [example 16, 5-(1H-Imidazol-1-yl)-N-((1R,4r)-4-(((R)-1-(methylsulfonyl)propan-2-yl)amino)cyclohexyl)-1H-indole-7-carboxamide]

Second part, the compound before the results:

Row | Compound | IC50 [nM]
6 | CCC(O)(CN[C@H]1CC[C@H](NC(=O)c2cc(-n3ccnc3)cc3cc[nH]c23)CC1)C(F)(F)F (stereo partly drawn) [example 1, N-((1r,4r)-4-((2-Hydroxy-2-(trifluoromethyl)butyl)amino)cyclohexyl)-5-(1Himidazol-1-yl)-1H-indole-7-carboxamide] | 500 to 1000
7 | C[C@](CO)(N[C@H]1CC[C@H](NC(=O)c2cc(-n3ccnc3)cc3cc[nH]c23)CC1)C(F)(F)F [example 2, 5-(1H-Imidazol-1-yl)-N-((1R,4r)-4-(((R)-1,1,1-trifluoro-3-hydroxy-2-methylpropan-2-yl)amino)cyclohexyl)-1H-indole-7-carboxamide] | 500 to 1000
8 | CC(C)c1c[nH]c2c(C(=O)N[C@H]3CC[C@H](OCC(C)(C)O)CC3)cc(-n3ccnc3)cc12 [example 3, N-((1r,4r)-4-(2-Hydroxy-2-methylpropoxy)cyclohexyl)-5-(1H-imidazol-1-yl)-3-isopropyl-1H-indole-7-carboxamide] | > 1000
9 | CNC(=O)[C@H]1CC[C@H](NC(=O)c2cc(-n3ccnc3)cc3cc[nH]c23)CC1 [example 4, 5-(1H-Imidazol-1-yl)-N-((1s,4s)-4-(methylcarbamoyl)cyclohexyl)-1H-indole-7-carboxamide] | < 500
10 | CC(O)CO[C@H]1CC[C@H](NC(=O)c2cc(-n3ccnc3)cc3cc[nH]c23)CC1 (stereo partly drawn) [example 7, N-((1r,4r)-4-(2-Hydroxypropoxy)cyclohexyl)-5-(1H-imidazol-1-yl)-1H-indole-7-carboxamide] | < 500
11 | CC(O)(CO[C@H]1CC[C@H](NC(=O)c2cc(-n3ccnc3)cc3cc[nH]c23)CC1)C(F)(F)F (stereo partly drawn) [example 9] | < 500
12 | CC(O)(C(=O)N[C@H]1CC[C@H](NC(=O)c2cc(-n3ccnc3)cc3cc[nH]c23)CC1)C(F)(F)F (stereo partly drawn) [example 11, 5-(1H-Imidazol-1-yl)-N-((1r,4r)-4-(3,3,3-trifluoro-2-hydroxy-2-methylpropanamido)cyclohexyl)-1H-indole-7-carboxamide] | < 500
13 | CC(C)C(O)CO[C@H]1CC[C@H](NC(=O)c2cc(-n3ccnc3)cc3cc[nH]c23)CC1 (stereo partly drawn) [example 14, N-((1r,4r)-4-(2-Hydroxy-3-methylbutoxy)cyclohexyl)-5-(1H-imidazol-1-yl)-1H-indole-7-carboxamide] | < 500
14 | CC(O)(COC1CCC(NC(=O)c2cc(-n3ccnc3)cc3cc[nH]c23)CC1)C1CC1 (stereo not drawn) [example 15, N-((1r,4r)-4-(2-Cyclopropyl-2-hydroxypropoxy)cyclohexyl)-5-(1H-imidazol-1-yl)-1H-indole-7-carboxamide] | < 500
15 | N-((1r,4r)-4-(2-Hydroxy-2-methylpropoxy)cyclohexyl)-5-(1H-imidazol-1-yl)-1H-indole-7-carboxamide [example 6] | < 500
